Tests used:
JAK3 = JAK3 (Homo sapiens (Human), UniProt P52333); experiment: Biochemical JAK kinase assay (LanthaScreen), JAK3
Experimental: (§1) A panel of four LanthaScreen JAK biochemical assays (JAK1, 2, 3 and Tyk2) were carried in a common kinase reaction buffer (50 mM HEPES, pH 7.5, 0.01% Brij-35, 10 mM MgCl2, and 1 mM EGTA). Recombinant GST-tagged JAK enzymes and a GFP-tagged STAT1 peptide substrate were obtained from Life Technologies.
(§2) Serially diluted compounds were pre-incubated with each of the four JAK enzymes and the substrate in white 384-well microplates (Corning) at ambient temperature for 1 h. ATP was subsequently added to initiate the kinase reactions in 10 μL total volume, with 1% DMSO. […] The plates were allowed to incubate at ambient temperature for 1 h before being read on the EnVision reader (Perkin Elmer).
(§3) For dose-response analysis, percent inhibition data were plotted vs. compound concentrations, and IC50 values were determined from a 4-parameter robust fit model with the Prism software (GraphPad Software). Results were expressed as pIC50 (negative logarithm of IC50) and subsequently converted to pKi (negative logarithm of dissociation constant, Ki) using the Cheng-Prusoff equation.

JAK1 = JAK1 (Homo sapiens (Human), UniProt P23458); experiment: Biochemical JAK kinase assay (LanthaScreen), JAK1
Experimental: as §1, §2, §3

[1] = tested on: IL-13 induced pSTAT6 in lung tissue; experiment: Murine model of IL-13 induced pSTAT6 induction in lung tissue; type: in vivo; conditions: mouse lung, oral aspiration 1 mg/mL 50 μL, IL-13 challenge 4 h post dose, pSTAT6 at 5 hours
Experimental: IL-13 is an important cytokine underlying the pathophysiology of asthma (Kudlacz et al. Eur. J. Pharmacol, 2008, 582, 154-161). IL-13 binds to cell surface receptors activating members of the Janus family of kinases (JAK) which then phosphorylate STAT6 and subsequently activates further transcription pathways. In the described model, a dose of IL-13 was delivered locally into the lungs of mice to induce the phosphorylation of STAT6 (pSTAT6) which is then measured as the endpoint.
Adult balb/c mice from Harlan were used in the assay. On the day of study, animals were lightly anesthetized with isoflurane and administered either vehicle or test compound (1 mg/mL, 50 μL total volume over several breaths) via oral aspiration. Animals were placed in lateral recumbency post dose and monitored for full recovery from anesthesia before being returned to their home cage. Four hours later, animals were once again briefly anesthetized and challenged with either vehicle or IL-13 (0.03 μg total dose delivered, 50 μL total volume) via oral aspiration before being monitored for recovery from anesthesia and returned to their home cage. One hour after vehicle or IL-13 administration, lungs were collected for both pSTAT6 detection using an anti-pSTAT6 ELISA (rabbit mAb capture/coating antibody; mouse mAb detection/report antibody: anti-pSTAT6-pY641; secondary antibody: anti-mouse IgG-HRP) and analyzed for total drug concentration as described above in Assay 3.
Selected compounds of the invention were tested in the assay. Activity in the model is evidenced by a decrease in the level of pSTAT6 present in the lungs of treated animals at 5 hours compared to the vehicle treated, IL-13 challenged control animals. The difference between the control animals which were vehicle-treated, IL-13 challenged and the control animals which were vehicle-treated, vehicle challenged dictated the 0% and 100% inhibitory effect, respectively, in any given experiment.

[2] = Pharmacokinetics in plasma and lung in mouse; type: in vivo; conditions: oral aspiration, ratio of lung exposure to plasma exposure
[3] = tested on: IL-13 induced STAT6 phosphorylation in BEAS-2B human lung epithelial cells; experiment: Cellular JAKI potency assay (AlphaScreen, BEAS-2B); type: cell-based; conditions: BEAS-2B cells
Experimental: The AlphaScreen JAKI cellular potency assay was carried out by measuring interleukin-13 (IL-13, R&D Systems) induced STAT6 phosphorylation in BEAS-2B human lung epithelial cells (ATCC). The anti-STAT6 antibody (Cell Signaling Technologies) was conjugated to AlphaScreen acceptor beads (Perkin Elmer), while the anti-pSTAT6 (pTyr641) antibody (Cell Signaling Technologies) was biotinylated using EZ-Link Sulfo-NHS-Biotin (Thermo Scientific).
BEAS-2B cells were grown at 37° C. in a 5% CO2 humidified incubator in 50% DMEM/50% F-12 medium (Life Technologies) supplemented with 10% FBS (Hyclone), 100 U/mL penicillin, 100 μg/mL streptomycin (Life Technologies), and 2 mM GlutaMAX (Life Technologies). On day 1 of the assay, cells were seeded at a 7,500 cells/well density in white poly-D-lysine-coated 384-well plates (Corning) with 25 μL medium, and were allowed to adhere overnight in the incubator. On day 2 of the assay, the medium was removed and replaced with 12 μL of assay buffer (Hank's Balanced Salt Solution/HBSS, 25 mM HEPES, and 1 mg/ml bovine serum albumin/BSA) containing dose-responses of test compounds. Compounds were serially diluted in DMSO and then diluted another 1000-fold in media to bring the final DMSO concentration to 0.1%. Cells were incubated with test compounds at 37° C. for 1 h, and followed by the addition of 12 μl of pre-warmed IL-13 (80 ng/mL in assay buffer) for stimulation. After incubating at 37° C. for 30 min, the assay buffer (containing compound and IL-13) was removed, and 10 μL of cell lysis buffer (25 mM HEPES, 0.1% SDS, 1% NP-40, 5 mM MgCl2, 1.3 mM EDTA, 1 mM EGTA, and supplement with Complete Ultra mini protease inhibitors and PhosSTOP from Roche Diagnostics). The plates were shaken at ambient temperature for 30 min before the addition of detection reagents. A mixture of biotin-anti-pSTAT6 and anti-STAT6 conjugated acceptor beads was added first and incubated at ambient temperature for 2 h, followed by the addition of streptavidin conjugated donor beads (Perkin Elmer). After a minimum of 2 h incubation, the assay plates were read on the EnVision plate reader. AlphaScreen luminescence signals were recorded and utilized to calculate the percent inhibition values based on DMSO and background controls.
For dose-response analysis, percent inhibition data were plotted vs. compound concentrations, and IC50 values were determined from a 4-parameter robust fit model with the Prism software. Results may also be expressed as the negative logarithm of the IC50 value, pIC50.
Test compounds having a lower IC50 value or higher pIC50 value in this assay show greater inhibition of IL-13 induced STAT6 phosphorylation.

Tyk2 = Tyk2 (Homo sapiens (Human), UniProt P29597); experiment: Biochemical JAK kinase assay (LanthaScreen), Tyk2
Experimental: as §1, §2, §3

JAK2 = JAK2 (Homo sapiens (Human), UniProt O60674); experiment: Biochemical JAK kinase assay (LanthaScreen), JAK2
Experimental: as §1, §2, §3

[4] = tested on: alternaria-induced BALF eosinophils; experiment: Murine model of Alternaria alternata-induced eosinophilic inflammation of the lung; type: in vivo; conditions: mouse, oropharyngeal aspiration, 48 h after alternaria challenge, maximum statistically significant percent inhibition
Experimental: Airway eosinophilia is a hallmark of human asthma. Alternaria alternata is a fungal aeroallergen that can exacerbate asthma in humans and induces eosinophilic inflammation in the lungs of mice (Havaux et al. Clin Exp Immunol. 2005 February; 139(2):179-88).
Seven- to nine-week old male C57 mice from Taconic were used in the study. On the day of study, animals were lightly anesthetized with isoflurane and administered either vehicle or test compound (0.03-1.0 mg/mL, 50 μL total volume over several breaths) via oropharyngeal aspiration. Animals were placed in lateral recumbency post dose and monitored for full recovery from anesthesia before being returned to their home cage. One hour later, animals were once again briefly anesthetized and challenged with either vehicle or alternaria extract (200 ug total extract delivered, 50 μL total volume) via oropharyngeal aspiration before being monitored for recovery from anesthesia and returned to their home cage. Forty-eight hours after alternaria administration, bronchoalveolar lavage fluid (BALF) was collected and eosinophils were counted in the BALF using the Advia 120 Hematology System (Siemens).
Activity in the model is evidenced by a decrease in the level of eosinophils present in the BALF of treated animals at forty-eight hours compared to the vehicle treated, alternaria challenged control animals. Data are expressed as percent inhibition of the vehicle treated, alternaria challenged BALF eosinophils response. To calculate percent inhibition, the number of BALF eosinophils for each condition is converted to percent of the average vehicle treated, alternaria challenged BALF eosinophils and subtracted from one-hundred percent.

Sequence of JAK1 (P23458 whole entry): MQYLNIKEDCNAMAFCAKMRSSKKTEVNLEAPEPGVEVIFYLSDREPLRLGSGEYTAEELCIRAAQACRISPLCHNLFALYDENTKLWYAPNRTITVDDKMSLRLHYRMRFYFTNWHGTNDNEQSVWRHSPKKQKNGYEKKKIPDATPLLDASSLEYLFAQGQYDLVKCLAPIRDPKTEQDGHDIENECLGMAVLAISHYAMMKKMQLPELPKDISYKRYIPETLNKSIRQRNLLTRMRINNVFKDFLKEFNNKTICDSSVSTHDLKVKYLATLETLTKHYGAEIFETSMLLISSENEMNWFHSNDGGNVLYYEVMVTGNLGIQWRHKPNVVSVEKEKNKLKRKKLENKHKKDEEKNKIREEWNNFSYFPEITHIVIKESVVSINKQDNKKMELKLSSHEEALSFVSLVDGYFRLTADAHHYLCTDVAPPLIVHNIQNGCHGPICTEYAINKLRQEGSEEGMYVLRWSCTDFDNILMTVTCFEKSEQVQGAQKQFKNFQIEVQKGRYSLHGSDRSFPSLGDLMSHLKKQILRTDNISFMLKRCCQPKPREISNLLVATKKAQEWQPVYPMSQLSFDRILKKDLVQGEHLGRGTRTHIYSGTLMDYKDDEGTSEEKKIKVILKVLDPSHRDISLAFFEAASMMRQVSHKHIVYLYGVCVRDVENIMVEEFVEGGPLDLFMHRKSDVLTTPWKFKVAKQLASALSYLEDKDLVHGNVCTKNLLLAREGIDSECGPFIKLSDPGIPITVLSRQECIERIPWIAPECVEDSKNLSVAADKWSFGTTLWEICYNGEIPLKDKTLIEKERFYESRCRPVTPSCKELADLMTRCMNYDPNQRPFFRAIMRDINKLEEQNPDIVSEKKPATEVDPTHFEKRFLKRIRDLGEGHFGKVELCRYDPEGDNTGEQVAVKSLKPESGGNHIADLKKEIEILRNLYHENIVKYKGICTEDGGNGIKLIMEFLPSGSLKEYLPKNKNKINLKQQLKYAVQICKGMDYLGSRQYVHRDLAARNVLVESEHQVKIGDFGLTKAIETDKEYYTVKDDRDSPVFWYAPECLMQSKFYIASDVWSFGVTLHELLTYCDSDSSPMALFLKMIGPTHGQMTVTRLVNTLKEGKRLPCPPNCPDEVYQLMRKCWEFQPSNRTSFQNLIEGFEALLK
Sequence of JAK3 (P52333 whole entry): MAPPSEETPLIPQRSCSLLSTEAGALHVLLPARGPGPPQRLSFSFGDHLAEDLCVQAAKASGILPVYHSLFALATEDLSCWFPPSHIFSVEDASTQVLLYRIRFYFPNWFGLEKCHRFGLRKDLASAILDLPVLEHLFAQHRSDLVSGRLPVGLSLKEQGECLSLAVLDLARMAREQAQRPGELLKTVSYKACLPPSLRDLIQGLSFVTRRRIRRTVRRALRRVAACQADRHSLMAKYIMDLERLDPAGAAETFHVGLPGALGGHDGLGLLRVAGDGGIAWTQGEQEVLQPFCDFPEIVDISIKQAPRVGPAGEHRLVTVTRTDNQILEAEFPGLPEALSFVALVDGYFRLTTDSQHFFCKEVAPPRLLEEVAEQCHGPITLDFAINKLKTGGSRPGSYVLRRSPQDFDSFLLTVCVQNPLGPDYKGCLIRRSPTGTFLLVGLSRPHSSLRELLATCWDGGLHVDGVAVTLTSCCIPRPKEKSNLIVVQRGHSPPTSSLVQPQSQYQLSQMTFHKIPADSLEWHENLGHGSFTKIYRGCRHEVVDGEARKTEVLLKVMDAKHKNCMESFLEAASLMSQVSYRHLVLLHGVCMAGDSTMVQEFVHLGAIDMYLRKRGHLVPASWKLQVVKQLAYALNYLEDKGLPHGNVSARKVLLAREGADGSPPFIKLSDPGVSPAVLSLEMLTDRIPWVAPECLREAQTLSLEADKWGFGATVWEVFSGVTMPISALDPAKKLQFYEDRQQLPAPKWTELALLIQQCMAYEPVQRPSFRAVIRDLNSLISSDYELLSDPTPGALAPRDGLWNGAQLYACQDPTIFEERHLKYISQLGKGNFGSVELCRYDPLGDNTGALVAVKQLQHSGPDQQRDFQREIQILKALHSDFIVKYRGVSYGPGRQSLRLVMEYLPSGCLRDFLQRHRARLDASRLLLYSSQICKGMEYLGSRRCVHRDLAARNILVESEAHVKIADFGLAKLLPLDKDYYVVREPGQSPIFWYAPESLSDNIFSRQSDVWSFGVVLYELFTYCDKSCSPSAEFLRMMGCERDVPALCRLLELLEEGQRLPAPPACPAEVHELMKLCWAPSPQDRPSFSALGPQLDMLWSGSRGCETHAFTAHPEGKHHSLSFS
Sequence of JAK2 (O60674 whole entry): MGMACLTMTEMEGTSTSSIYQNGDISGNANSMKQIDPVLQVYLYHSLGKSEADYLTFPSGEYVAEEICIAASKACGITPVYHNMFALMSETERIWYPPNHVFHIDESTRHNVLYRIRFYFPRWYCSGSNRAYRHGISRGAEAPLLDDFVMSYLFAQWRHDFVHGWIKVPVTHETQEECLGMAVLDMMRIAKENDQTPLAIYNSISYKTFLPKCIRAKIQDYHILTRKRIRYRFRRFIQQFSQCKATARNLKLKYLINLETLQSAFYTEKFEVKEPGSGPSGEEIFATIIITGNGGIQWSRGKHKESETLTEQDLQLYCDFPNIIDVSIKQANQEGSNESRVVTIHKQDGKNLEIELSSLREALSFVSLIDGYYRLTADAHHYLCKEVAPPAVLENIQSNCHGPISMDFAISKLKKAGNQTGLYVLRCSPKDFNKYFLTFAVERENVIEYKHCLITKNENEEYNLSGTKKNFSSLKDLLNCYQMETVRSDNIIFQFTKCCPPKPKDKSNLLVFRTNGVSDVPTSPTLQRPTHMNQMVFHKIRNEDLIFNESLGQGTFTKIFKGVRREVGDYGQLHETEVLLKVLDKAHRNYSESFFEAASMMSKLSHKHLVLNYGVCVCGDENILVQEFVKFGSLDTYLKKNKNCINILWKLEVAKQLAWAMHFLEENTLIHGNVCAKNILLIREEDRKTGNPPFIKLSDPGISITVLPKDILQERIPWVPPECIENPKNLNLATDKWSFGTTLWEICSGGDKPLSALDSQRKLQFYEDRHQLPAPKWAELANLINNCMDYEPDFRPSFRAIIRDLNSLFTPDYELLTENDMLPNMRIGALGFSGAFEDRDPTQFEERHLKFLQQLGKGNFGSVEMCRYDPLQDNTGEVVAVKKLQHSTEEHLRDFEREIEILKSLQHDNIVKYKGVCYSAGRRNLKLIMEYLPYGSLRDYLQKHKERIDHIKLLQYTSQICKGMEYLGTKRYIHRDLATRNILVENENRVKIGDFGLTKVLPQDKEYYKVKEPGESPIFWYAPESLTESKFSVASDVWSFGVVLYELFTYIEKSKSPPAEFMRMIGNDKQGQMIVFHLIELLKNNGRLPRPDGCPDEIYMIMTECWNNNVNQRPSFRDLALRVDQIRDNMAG
Sequence of Tyk2 (P29597 whole entry): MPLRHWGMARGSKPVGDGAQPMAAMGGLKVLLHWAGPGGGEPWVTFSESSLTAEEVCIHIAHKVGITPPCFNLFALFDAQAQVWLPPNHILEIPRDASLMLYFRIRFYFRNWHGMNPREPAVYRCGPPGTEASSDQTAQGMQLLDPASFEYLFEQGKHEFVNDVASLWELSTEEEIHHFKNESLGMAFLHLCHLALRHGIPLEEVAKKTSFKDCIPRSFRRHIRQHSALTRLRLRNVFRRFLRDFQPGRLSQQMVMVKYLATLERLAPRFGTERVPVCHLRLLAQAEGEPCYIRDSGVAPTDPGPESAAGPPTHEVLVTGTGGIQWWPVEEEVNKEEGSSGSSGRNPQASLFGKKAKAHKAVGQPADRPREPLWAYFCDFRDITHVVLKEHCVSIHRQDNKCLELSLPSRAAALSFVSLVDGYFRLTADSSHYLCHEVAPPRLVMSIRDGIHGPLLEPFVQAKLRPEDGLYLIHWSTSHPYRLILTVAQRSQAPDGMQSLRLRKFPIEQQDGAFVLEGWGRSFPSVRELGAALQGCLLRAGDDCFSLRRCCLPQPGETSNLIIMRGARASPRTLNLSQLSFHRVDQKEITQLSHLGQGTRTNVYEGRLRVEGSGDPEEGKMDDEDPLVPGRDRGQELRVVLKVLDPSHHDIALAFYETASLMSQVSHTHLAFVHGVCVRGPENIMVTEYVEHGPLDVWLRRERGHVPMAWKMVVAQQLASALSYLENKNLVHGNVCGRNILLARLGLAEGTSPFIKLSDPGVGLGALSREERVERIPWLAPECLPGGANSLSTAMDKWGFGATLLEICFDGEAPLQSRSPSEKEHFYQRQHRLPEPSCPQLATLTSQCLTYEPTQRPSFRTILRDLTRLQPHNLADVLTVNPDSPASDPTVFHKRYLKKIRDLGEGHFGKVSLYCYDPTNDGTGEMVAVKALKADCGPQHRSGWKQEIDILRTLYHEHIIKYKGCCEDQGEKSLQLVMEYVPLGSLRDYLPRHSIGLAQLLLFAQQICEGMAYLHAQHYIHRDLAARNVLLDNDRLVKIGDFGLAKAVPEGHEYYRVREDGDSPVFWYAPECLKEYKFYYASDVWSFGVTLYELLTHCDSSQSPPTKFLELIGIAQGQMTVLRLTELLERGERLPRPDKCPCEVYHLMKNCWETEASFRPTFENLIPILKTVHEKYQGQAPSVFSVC

CCc1cc(O)c(F)cc1-c1ccc2c(-c3nc4c([nH]3)CN(CC)[C@@H](C(=O)N(C)CCN(CC)CC)C4)n[nH]c2c1 [Example 12-14, (R)—N-(2-(diethylamino)ethyl)-5-ethyl-2-(6-(2-ethyl-5-fluoro-4-hydroxyphenyl)-1H-indazol-3-yl)-N-methyl-4,5,6,7-tetrahydro-3H-imidazo[4,5-c]pyridine-6-carboxamide]
Ki (JAK3): 0.2 nM
Ki (JAK1): 0.06 nM
pSTAT6 inhibition Assay 4 [1]: B (B represents between 40% and 60% inhibition)
Lung to Plasma ratio Assay 3 [2]: B (B denotes a ratio between 50 and 100)
IC50 [3]: 3.3 nM

CCc1cc(O)c(F)cc1-c1ccc2c(-c3nc4c([nH]3)CN(C)[C@H](C(=O)N3CCN(C)C[C@@H]3C)C4)n[nH]c2c1 [Example 2-15]
pSTAT6 inhibition Assay 4 [1]: B (B represents between 40% and 60% inhibition)
IC50 [3]: 4 nM

CCc1cc(O)c(F)cc1-c1ccc2c(-c3nc4c([nH]3)CN(CC)C(C(=O)N(C)CCN(CC)CC)C4)n[nH]c2c1 (centres unmarked) [Example 12-8]
pSTAT6 inhibition Assay 4 [1]: A (A represents between 60% and 80% inhibition)

CCCN1Cc2[nH]c(-c3n[nH]c4cc(-c5cc(F)c(O)cc5CC)ccc34)nc2CC1C(=O)N(C)C1CCN(C)CC1 (centres unmarked) [Example 13-5]
pSTAT6 inhibition Assay 4 [1]: C (C represents between 25% and 40% inhibition)
Lung to Plasma ratio Assay 3 [2]: A (A denotes a ratio 100-200)

CCc1cc(O)c(F)cc1-c1ccc2c(-c3nc4c([nH]3)CNC(C(=O)N3CCN(C(C)C)CC3)C4)n[nH]c2c1 (centres unmarked) [Example 1-2]
Ki (Tyk2): 0.08 nM
Ki (JAK3): 0.16 nM
Ki (JAK1): 0.05 nM
IC50 [3]: 7.8 nM
Ki (JAK2): 0.03 nM

CCc1cc(O)c(F)cc1-c1ccc2c(-c3nc4c([nH]3)CN(C)C(C(=O)N3CCN(C(C)C)CC3)C4)n[nH]c2c1 (centres unmarked) [Example 1-12]
IC50 [3]: 5.9 nM

CCCN1Cc2[nH]c(-c3n[nH]c4cc(-c5cc(F)c(O)cc5CC)ccc34)nc2C[C@H]1C(=O)N1CCN(CCO)CC1 [Example 7, (S)-(2-(6-(2-ethyl-5-fluoro-4-hydroxyphenyl)-1H-indazol-3-yl)-5-propyl-4,5,6,7-tetrahydro-3H-imidazo[4,5-c]pyridin-6-yl)(4-(2-hydroxyethyl)piperazin-1-yl)methanone]
Percent Inhibition of Alternaria-induced BALF Eosinophils [4]: 91
Ki (JAK1): 0.06 nM
pSTAT6 inhibition Assay 4 [1]: B (B represents between 40% and 60% inhibition)
IC50 [3]: 5.4 nM

CCCN1Cc2[nH]c(-c3n[nH]c4cc(-c5cc(F)c(O)cc5CC)ccc34)nc2C[C@@H]1C(=O)N1CC[C@H](N(C)C)C1 [Example 9-21]
Ki (Tyk2): 1 nM
Ki (JAK1): 0.06 nM
pSTAT6 inhibition Assay 4 [1]: B (B represents between 40% and 60% inhibition)
IC50 [3]: 4 nM
Ki (JAK2): 0.03 nM

CCCN1Cc2[nH]c(-c3n[nH]c4cc(-c5cc(F)c(O)cc5CC)ccc34)nc2CC1C(=O)N(C)C1CCN(C)CC1 (centres unmarked) [Example 13-2]
pSTAT6 inhibition Assay 4 [1]: A (A represents between 60% and 80% inhibition)
Lung to Plasma ratio Assay 3 [2]: A (A denotes a ratio 100-200)

CCCN1Cc2[nH]c(-c3n[nH]c4cc(-c5cc(F)c(O)cc5CC)ccc34)nc2CC1C(=O)N(C)C1CCN(C)CC1 (centres unmarked) [Example 13-6]
pSTAT6 inhibition Assay 4 [1]: B (B represents between 40% and 60% inhibition)
Lung to Plasma ratio Assay 3 [2]: B (B denotes a ratio between 50 and 100)

CCc1cc(O)c(F)cc1-c1ccc2c(-c3nc4c([nH]3)CN(C(C)C)[C@H](C(=O)N3CCCN(C)CC3)C4)n[nH]c2c1 [Example 5, (S)-(2-(6-(2-ethyl-5-fluoro-4-hydroxyphenyl)-1H-indazol-3-yl)-5-isopropyl-4,5,6,7-tetrahydro-3H-imidazo[4,5-c]pyridin-6-yl)(4-methyl-1,4-diazepan-1-yl)methanone]
Ki (JAK3): 0.2 nM
Ki (JAK1): 0.08 nM
pSTAT6 inhibition Assay 4 [1]: B (B represents between 40% and 60% inhibition)
Lung to Plasma ratio Assay 3 [2]: B (B denotes a ratio between 50 and 100)
IC50 [3]: 6.5 nM

CCc1cc(O)c(F)cc1-c1ccc2c(-c3nc4c([nH]3)CN(C)[C@H](C(=O)N3CCN(CCO)C[C@H]3C)C4)n[nH]c2c1 [Example 6, ((S)-2-(6-(2-ethyl-5-fluoro-4-hydroxyphenyl)-1H-indazol-3-yl)-5-methyl-4,5,6,7-tetrahydro-3H-imidazo[4,5-c]pyridin-6-yl)((R)-4-(2-hydroxyethyl)-2-methyl-piperazin-1-yl)methanone]
Percent Inhibition of Alternaria-induced BALF Eosinophils [4]: 73
Ki (JAK1): 0.1 nM
pSTAT6 inhibition Assay 4 [1]: B (B represents between 40% and 60% inhibition)
IC50 [3]: 4.2 nM

From patent US10208040B2, “Fused imidazo-piperidine JAK inhibitors” (THERAVANCE BIOPHARMA R&D IP, LLC, priority 2017, dated 2019)
